Source: paper PMC3785448, “Effect of Selectively Introducing Arginine and D-Amino Acids on the Antimicrobial Activity and Salt Sensitivity in Analogs of Human Beta-Defensins” (PLoS ONE, 2013)
Converted amounts (≈) assume the structure as drawn. Bridge positions count the residues as written; N and C are the ends. Square brackets hold non-standard residues; d marks the D form. Peptide text beside a SMILES is read from it.

Legend:
E. coli (MG 1655) = test: Antibacterial activity, lethal concentration (colony count); format: cell-based, Escherichia coli; conditions: lethal concentration = no viable colonies; 10^6 cfu/ml in 10 mM sodium phosphate buffer pH 7.4, 2 h at 37°C, plated 18 h; average of three independent experiments in duplicate, variation <5%
Description: (§1) Bacterial strains used were E. coli (MG 1655), S. aureus (ATCC 8530), and P. aeruginosa (NCTC 6751). The antibacterial activity of the peptides was examined in sterile 96 well plates at a ﬁnal volume of 100 µl as follows: Bacteria were grown in nutrient broth (Bacto Difco nutrient broth) to mid-log phase and diluted to 10^6 colony forming units (cfu)/ml in 10 mM sodium phosphate buffer (pH 7.4). Bacteria were incubated with different concentration of peptides for 2 h at 37°C and suitably diluted aliquots were spread on nutrient agar plates. After the plates were incubated at 37°C for 18 h, colonies formed were counted. Lethal concentration (LC) is the concentration of the peptides at which no viable colonies were formed. Cell survival is expressed as a percentage of the control. Percentage killing was calculated as: [(colonies from control cells- colonies from treated cells)/colonies from control cells x 100]. The LC determined was average of three independent experiments done in duplicate. In control experiments, cells were incubated with only buffer.

S. aureus (ATCC 8530) = test: as above; format: cell-based; conditions: lethal concentration = no viable colonies; 10^6 cfu/ml in 10 mM sodium phosphate buffer pH 7.4, 2 h at 37°C, plated 18 h; average of three independent experiments in duplicate, variation <5%
Description: as §1

[1] = tested on: P. aeruginosa (NCTC 6751); test: as above; format: cell-based; conditions: lethal concentration = no viable colonies; 10^6 cfu/ml in 10 mM sodium phosphate buffer pH 7.4, 2 h at 37°C, plated 18 h; average of three independent experiments in duplicate, variation <5%
Description: as §1

bacteria = test: Antibacterial activity, comparison of peptides; format: cell-based; conditions: from LC values
Description: as §1

Gram-negative bacteria = test: Effect of divalent cations on antibacterial activity at LC; format: cell-based; conditions: peptide at its LC; for Antibacterial activity in the presence of 1 mM Ca2+, Gram-negative bacteria: 1 mM CaCl2 in buffer
Description: (§2) To determine the effect of salt on antibacterial activity, different concentrations of NaCl was included in the incubation buffer at their LC. Different concentrations of divalent cations Ca^2+ and Mg^2+ (as their chloride salts), were included in the buffer to determine their effect on activity at lethal concentration (LC) of the peptides. In control experiments, cells were incubated with only buffer. Data are presented as mean ± standard deviation computed for three independent replicates.
(§3) Figure 2 Effect of divalent cations on antibacterial activity. Mid-log phase bacteria (10^6 CFU/mL) were incubated with peptides at their LC in the absence or presence of the indicated concentrations of CaCl2 and MgCl2. The data are mean values of three independent experiments and the error bars represent standard deviation of the measurements. Standard deviation values ranged between 0.2-2.7.

P. aeruginosa = test: as above; format: cell-based; conditions: peptide at its LC; for Loss in activity at 5 mM Mg2+ against P. aeruginosa: 5 mM MgCl2, as compared to HC-1(R)
Description: as §2, §3

C. albicans = test: Candidacidal activity, minimum fungicidal concentration; format: cell-based; conditions: minimum fungicidal concentration = no viable colonies; 10^6 cells/ml in 10 mM phosphate buffer pH 7.4, 2 h at 30°C, plated 24 h; average of three independent experiments in duplicate
Description: Minimum fungicidal concentrations (MFC) of the peptides were determined by growing C. albicans aerobically in yeast extract-peptone-dextrose (YEPD) medium at 30°C. After 20 h, 0.5 ml from this suspension was subcultured for 2 h in 20 ml of YEPD broth to obtain a mid-log-phase culture. Cells were harvested by centrifugation, washed with 10 mM phosphate buffer (PB), pH 7.4, and resuspended in the same buffer, and the concentration was adjusted to 10^6 cells/ml. Aliquots of diluted cells were incubated with peptides in 100 µl volume at 30°C for 2 h. Cell suspensions were diluted and spread on YEPD agar plates and the plates were incubated for 24 h at 30°C. Colonies were counted, and the concentrations of the peptides at which no viable colonies were formed were taken as the Minimum fungicidal concentration (MFC). Cell survival was expressed as a percentage of the control. Percentage killing was calculated as [(colonies from control cells- colonies from treated cells)/colonies from control cells x 100].
The average of results from three independent experiments done with duplicate samples was taken for the calculation of MFC. In control experiments, cells were incubated with only buffer.

S. aureus = test: Effect of divalent cations on antibacterial activity at LC; format: cell-based; conditions: peptide at its LC, 1 mM CaCl2
Description: as §2, §3

Row | SMILES | LC E. coli (E. coli (MG 1655)) [µM] | LC S. aureus (S. aureus (ATCC 8530)) [µM] | LC P. aeruginosa [1] [µM] | Fold more active against bacteria as compared to HC-1(R) and [D]HC-1(R) (bacteria) [fold] | Antibacterial activity in the presence of 1 mM Ca2+, Gram-negative bacteria (Gram-negative bacteria) | Antibacterial activity in the presence of 5 mM Ca2+, Gram-negative bacteria (Gram-negative bacteria; 5 mM CaCl2 in buffer) | Loss in activity at 5 mM Ca2+ against P. aeruginosa (P. aeruginosa; 5 mM CaCl2, as compared to [D]HC-1(R)) | Loss in activity at 5 mM Mg2+ against P. aeruginosa (P. aeruginosa) | MFC C. albicans (C. albicans) [µM] | Loss in activity against S. aureus at 1 mM Ca2+ (S. aureus)
1 | CC[C@@H](C)[C@H]1NC(=O)[C@H](CCC(N)=O)NC(=O)[C@H](CCC(=O)O)NC(=O)[C@H](CCC(=O)O)NC(=O)[C@H](CCCCN)NC(=O)[C@@H]2CCCN2C(=O)[C@H](CC(C)C)NC(=O)[C@@H](NC(=O)[C@@H](N)CO)CSSC[C@@H](C(=O)N[C@H](CCCNC(=N)N)C(=O)N[C@H](CCCNC(=N)N)C(=O)N[C@@H](CCCCN)C(=O)N[C@@H](CCCNC(=N)N)C(=O)O)NC(=O)[C@H](CCCCN)NC(=O)[C@@H](CCCNC(=N)N)NC(=O)CNC(=O)[C@@H](CCCNC(=N)N)NC(=O)[C@H]([C@@H](C)O)NC(=O)[C@H](CO)NC(=O)[C@H](CCCCN)NC(=O)CNC1=O [[D]HC-3(R)] (H-SCLPKEEQ[dI]GKST[dR]G[dR]KC[dR][dR]KR-OH; disulfide 2-18; N-terminus assumed) | 2.5 | 2.5 | 2.5 | 2 | loss in activity is observed | further attenuated | more pronounced | more | 2.5 (≈ 6.54 µg/mL) | –
2 | CC[C@@H](C)[C@H]1NC(=O)[C@H](CCCCN)NC(=O)[C@H]([C@@H](C)O)NC(=O)[C@H](Cc2ccccc2)NC(=O)[C@@H]([C@H](C)CC)NC(=O)[C@@H]2CCCN2C(=O)[C@@H](NC(=O)[C@H](C)N)CSSC[C@@H](C(=O)N[C@@H](CCCNC(=N)N)C(=O)O)NC(=O)[C@H](CCCCN)NC(=O)[C@H](C)NC(=O)[C@@H](CCCNC(=N)N)NC(=O)CNC(=O)[C@@H](CCCNC(=N)N)NC(=O)[C@H](Cc2ccc(O)cc2)NC(=O)[C@H]([C@@H](C)O)NC(=O)CNC(=O)[C@H](CCC(N)=O)NC1=O [[D]HC-1(R)] (H-ACP[dI]FTK[dI]QGTY[dR]G[dR]AKCR-OH; disulfide 2-18; N-terminus assumed) | 5 | 5 | 5 | – | is not attenuated | – | – | more | 5 (≈ 10.8 µg/mL) | not
3 | CC[C@H](C)[C@@H]1NC(=O)[C@H](CCCCN)NC(=O)[C@H]([C@@H](C)O)NC(=O)[C@H](Cc2ccccc2)NC(=O)[C@H]([C@@H](C)CC)NC(=O)[C@@H]2CCCN2C(=O)[C@@H](NC(=O)[C@H](C)N)CSSC[C@@H](C(=O)N[C@@H](CCCNC(=N)N)C(=O)O)NC(=O)[C@H](CCCCN)NC(=O)[C@H](C)NC(=O)[C@H](CCCNC(=N)N)NC(=O)CNC(=O)[C@H](CCCNC(=N)N)NC(=O)[C@H](Cc2ccc(O)cc2)NC(=O)[C@H]([C@@H](C)O)NC(=O)CNC(=O)[C@H](CCC(N)=O)NC1=O [HC-1(R)] (H-ACPIFTKIQGTYRGRAKCR-OH; disulfide 2-18) | – | – | – | – | – | – | – | – | 2.5 (≈ 5.42 µg/mL) | –
